Data on five compounds can be found in PubChem BioAssay (NCI).

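Where inhibition never reached the appropriate level, the endpoint shown equals the highest concentration tested. Otherwise, values were interpolated linearly from a five-concentration, 48-hour dose response in 96-well plates. GI50 is the concentration that inhibits growth by half. The concentration for full growth arrest is given as TGI.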

Some test systems named below: KM20L2 colon; SNB-78 CNS; XF 498 CNS; DLD-1 colon; DMS 273 small cell lung; HOP-18 NSCLC; M19-MEL melanoma; RXF-631 renal.
Assay in all cases: NCI tumour cell line growth inhibition, 48 h

As to `Cc1[nH]n(C(=O)c2ccccc2O)c(=O)c1/C=C1\C(=O)C=Cc2ccccc21`, the TGI came to 75.6 µM in the experiment with KM20L2 colon, 98.8 µM in the experiment with SNB-78 CNS and 29 µM in the experiment with XF 498 CNS.

Take `OC(Cn1cncn1)(Cn1cncn1)c1ccc(Cl)cc1Cl`: the TGI in the experiment on DLD-1 colon, in the experiment with DMS 273 small cell lung, in the experiment with HOP-18 NSCLC, with KM20L2 colon, in the experiment with M19-MEL melanoma and in the experiment with SNB-78 CNS was over 100 µM each time.

Consider `CC1(c2cccc(C3CCC4(C=CC3=O)OCCO4)c2)OCCO1` (stereo not drawn), for which the TGI in the experiment with DLD-1 colon amounted to 11 µM; in the experiment with DMS 273 small cell lung it was 22.9 µM; in the experiment on KM20L2 colon it was 16.8 µM; in the experiment on M19-MEL melanoma it was 25.8 µM; with SNB-78 CNS it was 48.7 µM.

For the compound `N#Cc1nn(-c2ccc(Cl)cc2)c(N)c2c(=N)n3nc(-c4ccccc4)cc3nc12`, the TGI was over 64.2 µM with DLD-1 colon; over 100 µM with DMS 273 small cell lung; over 100 µM in the experiment on KM20L2 colon; over 100 µM with SNB-78 CNS; over 100 µM with XF 498 CNS. In addition, the GI50 in the experiment on SNB-78 CNS was over 100 µM.

Take `C[Si](C)(C)C#C[I+]c1ccccc1`: the TGI was 40.9 µM in the experiment with DLD-1 colon; 44.5 µM in the experiment with DMS 273 small cell lung; over 100 µM with HOP-18 NSCLC; over 100 µM in the experiment on KM20L2 colon; 83.7 µM with M19-MEL melanoma; over 100 µM in the experiment with RXF-631 renal. In addition, the TGI with SNB-78 CNS and with XF 498 CNS was over 100 µM throughout.
